Like-named read-outs stand apart in the source and are kept apart here.
Experiments:
[1] = test system: Key Grass and Sedge Weeds as well as Grass Crops; experiment: Post-Emergent Test II: postemergent herbicidal activity, visual rating after 14 d (Table 8); type: in vivo; conditions: post-emergence, 336 h; for pest or weed control at 35 g/ha: 35 g ai/ha; for pest or weed control at 70 g/ha: 70 g ai/ha; for pest or weed control at 140 g/ha: 140 g ai/ha
In short: (§1)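 Track-sprayed young seedlings (first/second true leaf) at 187 L/ha across a 2-fold rate series from the high rate down to 1/16×. Kept in greenhouse at 23-29° C day, subirrigated. Injury rated by eye after 14 d, 0 = no injury, 100 = complete kill.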

[2] = test system: Key Broadleaf Weed and Crop Species; experiment: Post-Emergent Test II: postemergent herbicidal activity, visual rating after 14 d (Table 7); type: in vivo; conditions: post-emergence, 336 h; for pest or weed control at 35 g/ha: 35 g ai/ha; for pest or weed control at 70 g/ha: 70 g ai/ha; for pest or weed control at 140 g/ha: 140 g ai/ha
In short: as §1

[3] = barnyardgrass (Echinochloa crus-galli), read-out: Visual Growth Reduction (%) 14 Days After Application ECHCG
[4] = giant foxtail (Setaria faberi), read-out: Visual Growth Reduction (%) 14 Days After Application SETFA
[5] = maize, corn (Zea mays), read-out: Visual Growth Reduction (%) 14 Days After Application ZEAMX
[6] = rice (Oryza sativa), read-out: Visual Growth Reduction (%) 14 Days After Application ORYSA
[7] = wheat, spring (Triticum aestivum), read-out: Visual Growth Reduction (%) 14 Days After Application TRZAS
[8] = yellow nutsedge (Cyperus esculentus), read-out: Visual Growth Reduction (%) 14 Days After Application CYPES
[9] = lambsquarters (Chenopodium album), read-out: Visual Growth Reduction (%) 14 Days After Application CHEAL
[10] = oilseed rape, canola (Brassica napus), read-out: Visual Growth Reduction (%) 14 Days After Application BRSNN
[11] = redroot pigweed (Amaranthus retroflexus), read-out: Visual Growth Reduction (%) 14 Days After Application AMARE
[12] = sunflower (Helianthus annuus), read-out: Visual Growth Reduction (%) 14 Days After Application HELAN
[13] = velvetleaf (Abutilon theophrasti), read-out: Visual Growth Reduction (%) 14 Days After Application ABUTH
[14] = wild poinsettia (Euphorbia heterophylla), read-out: Visual Growth Reduction (%) 14 Days After Application EPHHL

SMILES	pest or weed control at 35 g/ha [1, 3]	pest or weed control at 70 g/ha [1, 3]	pest or weed control at 140 g/ha [1, 3]	pest or weed control at 35 g/ha [1, 4]	pest or weed control at 70 g/ha [1, 4]	pest or weed control at 140 g/ha [1, 4]	pest or weed control at 35 g/ha [1, 5]	pest or weed control at 70 g/ha [1, 5]	pest or weed control at 140 g/ha [1, 5]	pest or weed control at 35 g/ha [1, 6]	pest or weed control at 70 g/ha [1, 6]	pest or weed control at 140 g/ha [1, 6]	pest or weed control at 35 g/ha [1, 7]	pest or weed control at 70 g/ha [1, 7]	pest or weed control at 140 g/ha [1, 7]	pest or weed control at 35 g/ha [1, 8]	pest or weed control at 70 g/ha [1, 8]	pest or weed control at 140 g/ha [1, 8]	pest or weed control at 35 g/ha [2, 9]	pest or weed control at 70 g/ha [2, 9]	further results
COC(=O)c1nc(-c2ccc3c(c2)OC(F)(F)O3)c(Cl)c(N)c1Cl [Compound 1]	45 to 59%	60 to 74%	60 to 74%	0 to 29%	45 to 59%	45 to 59%	60 to 74%	60 to 74%	60 to 74%	0 to 29%	0 to 29%	0 to 29%	0 to 29%	0 to 29%	0 to 29%	0 to 29%	0 to 29%	0 to 29%	0 to 29%	0 to 29%	pest or weed control at 140 g/ha [2, 9]: 0 to 29%; pest or weed control at 35 g/ha [2, 10]: 0 to 29%; pest or weed control at 70 g/ha [2, 10]: 0 to 29%; pest or weed control at 140 g/ha [2, 10]: 0 to 29%; pest or weed control at 35 g/ha [2, 11]: 0 to 29%; pest or weed control at 70 g/ha [2, 11]: 0 to 29%; pest or weed control at 140 g/ha [2, 11]: 0 to 29%; pest or weed control at 35 g/ha [2, 12]: 85 to 94%; pest or weed control at 70 g/ha [2, 12]: 85 to 94%; pest or weed control at 140 g/ha [2, 12]: 85 to 94%; pest or weed control at 35 g/ha [2, 13]: 0 to 29%; pest or weed control at 70 g/ha [2, 13]: 0 to 29%; pest or weed control at 140 g/ha [2, 13]: 0 to 29%; pest or weed control at 35 g/ha [2, 14]: 0 to 29%; pest or weed control at 70 g/ha [2, 14]: 0 to 29%; pest or weed control at 140 g/ha [2, 14]: 0 to 29%
COC(=O)c1nc(-c2cc3c(cc2F)OCO3)c(F)c(N)c1OC [Compound 26]	45 to 59%	60 to 74%	75 to 84%	0 to 29%	0 to 29%	0 to 29%	45 to 59%	45 to 59%	60 to 74%	0 to 29%	0 to 29%	0 to 29%	0 to 29%	0 to 29%	0 to 29%	0 to 29%	0 to 29%	0 to 29%	0 to 29%	0 to 29%	pest or weed control at 140 g/ha [2, 9]: 0 to 29%; pest or weed control at 35 g/ha [2, 10]: 45 to 59%; pest or weed control at 70 g/ha [2, 10]: 60 to 74%; pest or weed control at 140 g/ha [2, 10]: 75 to 84%; pest or weed control at 35 g/ha [2, 11]: 0 to 29%; pest or weed control at 70 g/ha [2, 11]: 0 to 29%; pest or weed control at 140 g/ha [2, 11]: 85 to 94%; pest or weed control at 35 g/ha [2, 12]: 85 to 94%; pest or weed control at 70 g/ha [2, 12]: 95 to 100%; pest or weed control at 140 g/ha [2, 12]: 95 to 100%; pest or weed control at 35 g/ha [2, 13]: 0 to 29%; pest or weed control at 70 g/ha [2, 13]: 0 to 29%; pest or weed control at 140 g/ha [2, 13]: 0 to 29%; pest or weed control at 35 g/ha [2, 14]: 95 to 100%; pest or weed control at 70 g/ha [2, 14]: 95 to 100%; pest or weed control at 140 g/ha [2, 14]: 95 to 100%
C=Cc1c(C(=O)OC)nc(-c2cc3c(cc2F)OC(F)(F)O3)c(F)c1N [Compound 27]	0 to 29%	0 to 29%	0 to 29%	0 to 29%	0 to 29%	0 to 29%	0 to 29%	0 to 29%	30 to 44%	0 to 29%	0 to 29%	0 to 29%	0 to 29%	0 to 29%	0 to 29%	0 to 29%	0 to 29%	0 to 29%	0 to 29%	0 to 29%	pest or weed control at 140 g/ha [2, 9]: 0 to 29%; pest or weed control at 35 g/ha [2, 10]: 0 to 29%; pest or weed control at 70 g/ha [2, 10]: 0 to 29%; pest or weed control at 140 g/ha [2, 10]: 0 to 29%; pest or weed control at 35 g/ha [2, 11]: 0 to 29%; pest or weed control at 70 g/ha [2, 11]: 0 to 29%; pest or weed control at 140 g/ha [2, 11]: 0 to 29%; pest or weed control at 35 g/ha [2, 12]: 30 to 44%; pest or weed control at 70 g/ha [2, 12]: 75 to 84%; pest or weed control at 140 g/ha [2, 12]: 85 to 94%; pest or weed control at 35 g/ha [2, 13]: 0 to 29%; pest or weed control at 70 g/ha [2, 13]: 0 to 29%; pest or weed control at 140 g/ha [2, 13]: 0 to 29%; pest or weed control at 35 g/ha [2, 14]: 0 to 29%; pest or weed control at 70 g/ha [2, 14]: 0 to 29%; pest or weed control at 140 g/ha [2, 14]: 0 to 29%
C=Cc1c(C(=O)O)nc(-c2cc3c(cc2F)OC(F)(F)O3)c(F)c1N [Compound 28]	60 to 74%	75 to 84%	75 to 84%	0 to 29%	45 to 59%	60 to 74%	60 to 74%	60 to 74%	75 to 84%	0 to 29%	0 to 29%	0 to 29%	0 to 29%	0 to 29%	30 to 44%	95 to 100%	95 to 100%	95 to 100%	0 to 29%	0 to 29%	pest or weed control at 140 g/ha [2, 9]: 0 to 29%; pest or weed control at 35 g/ha [2, 10]: 0 to 29%; pest or weed control at 70 g/ha [2, 10]: 0 to 29%; pest or weed control at 140 g/ha [2, 10]: 60 to 74%; pest or weed control at 35 g/ha [2, 11]: 0 to 29%; pest or weed control at 70 g/ha [2, 11]: 0 to 29%; pest or weed control at 140 g/ha [2, 11]: 0 to 29%; pest or weed control at 35 g/ha [2, 12]: 85 to 94%; pest or weed control at 70 g/ha [2, 12]: 85 to 94%; pest or weed control at 140 g/ha [2, 12]: 95 to 100%; pest or weed control at 35 g/ha [2, 13]: 0 to 29%; pest or weed control at 70 g/ha [2, 13]: 0 to 29%; pest or weed control at 140 g/ha [2, 13]: 60 to 74%; pest or weed control at 35 g/ha [2, 14]: 95 to 100%; pest or weed control at 70 g/ha [2, 14]: 95 to 100%; pest or weed control at 140 g/ha [2, 14]: 95 to 100%
